Source: US8546377B2 (AbbVie Inc., priority 2009, dated 2013)
pEC50: −log10 of the molar value.

How the values were obtained:
5HT2C receptors [1] = molecular target: T1, 5HT2C receptors (Homo sapiens, UniProt P28335); assay: Human 5-HT2C functional assay in 1321N1 cells (intracellular calcium, FLIPR); type: cell-based; design: expressed in transfected cells; host or cells: 1321N1 cells; conditions: for EC50: 1321N1 cells stably transfected, maximum calcium response, read-out: EC50 (μM), 5-HT2c Agonist Activity; for Emax: 1321N1 cells, percentage relative to the effect of serotonin, read-out: Emax (%), 5-HT2c Agonist Activity
T1 sequence (P28335 33-458): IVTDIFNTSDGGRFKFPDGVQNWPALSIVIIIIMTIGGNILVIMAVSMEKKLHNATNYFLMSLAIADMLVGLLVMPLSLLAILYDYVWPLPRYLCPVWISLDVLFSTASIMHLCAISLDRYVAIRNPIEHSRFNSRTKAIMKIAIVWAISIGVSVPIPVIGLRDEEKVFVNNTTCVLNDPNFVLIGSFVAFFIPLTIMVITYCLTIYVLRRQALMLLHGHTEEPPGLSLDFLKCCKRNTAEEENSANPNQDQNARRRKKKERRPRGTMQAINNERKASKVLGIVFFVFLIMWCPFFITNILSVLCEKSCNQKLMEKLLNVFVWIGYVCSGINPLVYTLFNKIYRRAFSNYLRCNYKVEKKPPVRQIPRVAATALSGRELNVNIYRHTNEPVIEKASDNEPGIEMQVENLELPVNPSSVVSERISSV
Description: (ii) Human 5-HT2C Functional Assay in 1321N1 Cells
Functional activity was determined by testing the effect of the compounds on intracellular calcium levels in 1321N1 cells stably transfected with the human 5-HT2C receptor. Cells were seeded into 96-well plates at 50,000 cells/well and grown overnight in tissue culture medium (DMEM with Glutamax I (Invitrogen), containing 10% dFCS, 50 μg/mL Gentamicin, 400 μg/mL Geneticin) at 37° C. and 7% CO2. Growth medium was replaced by medium without dFCS for overnight incubation. Cells were loaded with a fluorescent calcium-sensitive dye in the presence of 1% probenicid according to the manufacturer's protocol (Fluo4 AM, Molecular Devices). Serial compound dilutions (final concentrations 10^−10 to 10^−5 M) were added to the cells either alone or in the presence of serotonin (10^−9 M) and the maximum calcium response was determined using a FLIPR instrument (Molecular Devices). Concentration-response curves were fitted using a four-parameter logistic equation (GraphPad Prism). The concentration at which the compound exerts half its maximal effect is named the ‘effective concentration 50’ or ‘EC50’ and is listed in Table 2.
Emax is the maximum functional response or efficacy expressed as a percentage relative to the effect of serotonin.

[2] = molecular target: T2, human serotonin 5-HT2c receptor (Homo sapiens, UniProt P28335); assay: Human 5-HT2C receptor radioligand binding assay (agonist site, [125I](±)DOI); conditions: membranes of transfected CHO cells, 0.2 nM [125I](±)DOI, 15 minutes at 37° C.
T2 construct: expressed in transfected cells; host or cells: CHO cells (membrane homogenate)
T2 sequence (P28335 33-458): T1 sequence (P28335 33-458)
Description: To determine the effectiveness of compounds having a formula (I), these compounds can be evaluated in a radioligand binding assay for the agonist site of the human serotonin 5-HT2c receptor or in vitro models of cellular function.
(i) Human 5-HT2C Receptor Radioligand Binding Assay
Affinity of compounds for the agonist site of the 5-HT2c receptor in transfected CHO cells was determined in a radioligand binding assay essentially as described by Bryant, H. U., et al., Life Sciences (1996) 59(15), 1259-1268.

5HT2B receptors = molecular target: T3, 5HT2B receptors (Homo sapiens, UniProt P41595); assay: Human 5-HT2B functional assay in CHO-K1 cells (calcium flux, FLIPR); type: cell-based
T3 construct: expressed in transfected cells; host or cells: CHO-K1 cells
How it was run: (§1)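 Frozen CHO-K1 cells over-expressing receptor, serum-starved overnight, loaded with Ca4 dye plus 2.5 mM probenecid for 60 min at room temperature. FLIPR fluorescence (ex 480/em 530 nm, 25° C) recorded 3 min after compound addition; 6-point 1:10 series from 10 μM, 0.2% DMSO. Response normalized to serotonin, 4-parameter fit gives EC50; Emax as % of serotonin.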

5HT2C receptors [3] = molecular target: T1, 5HT2C receptors; assay: Human 5-HT2C functional assay in CHO-K1 cells (calcium flux, FLIPR); type: cell-based; design: expressed in transfected cells; host or cells: CHO-K1 cells; conditions: for Emax: CHO-K1, read-out: Emax (%), 5-HT2c Agonist Activity, CHO-K1 cells, percentage relative to the effect of serotonin
How it was run: as §1

T3 sequence (P41595 whole entry): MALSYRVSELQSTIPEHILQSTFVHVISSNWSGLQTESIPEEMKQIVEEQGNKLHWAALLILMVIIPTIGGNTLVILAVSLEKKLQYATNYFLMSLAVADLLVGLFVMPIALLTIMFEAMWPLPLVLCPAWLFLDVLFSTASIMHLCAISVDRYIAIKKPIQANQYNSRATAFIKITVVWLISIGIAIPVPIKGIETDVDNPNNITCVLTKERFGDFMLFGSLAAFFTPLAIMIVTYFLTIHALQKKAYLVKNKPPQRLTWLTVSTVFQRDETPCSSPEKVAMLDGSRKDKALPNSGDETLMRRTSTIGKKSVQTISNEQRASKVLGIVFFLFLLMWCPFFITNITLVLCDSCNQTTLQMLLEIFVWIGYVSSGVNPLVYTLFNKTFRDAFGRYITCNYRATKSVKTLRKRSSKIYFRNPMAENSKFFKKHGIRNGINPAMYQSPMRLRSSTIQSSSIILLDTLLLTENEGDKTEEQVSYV

| Compound | EC50 (5HT2C receptors [1]) | Emax (5HT2C receptors [1]) | Ki [2] | pEC50 (5HT2B receptors) | pEC50 (5HT2C receptors [3]) | Emax (5HT2C receptors [3]) | Emax (5HT2B receptors; CHO-K1, read-out: Emax (%), 5-HT2B Agonist Activity) |
| --- | --- | --- | --- | --- | --- | --- | --- |
| O=C1CC2CNCCN2c2cc(-c3cccc(Cl)c3)ccc2N1 (centres unmarked) [Example 7, 10-(3-chlorophenyl)-1,2,3,4,4a,5-hexahydropyrazino[1,2-a][1,5]benzodiazepin-6(7H)-one] | 0.0279 µM | 86% | 0.041 µM | – | – | – | – |
| Cc1ccc2c(c1)N1CCNCC1CC(=O)N2 (centres unmarked) [Example 10, 10-methyl-1,2,3,4,4a,5-hexahydropyrazino[1,2-a][1,5]benzodiazepin-6(7H)-one] | 0.003 µM | 99% | 0.0083 µM | – | – | – | – |
| N#Cc1ccc2c(c1)N1CCNCC1CC(=O)N2 (centres unmarked) [Example 11, 6-oxo-1,2,3,4,4a,5,6,7-octahydropyrazino[1,2-a][1,5]benzodiazepine-10-carbonitrile] | 0.0938 µM | 104% | 0.19 µM | – | – | – | – |
| COc1ccc2c(c1)N1CCNCC1CC(=O)N2 (centres unmarked) [Example 12, 10-methoxy-1,2,3,4,4a,5-hexahydropyrazino[1,2-a][1,5]benzodiazepin-6(7H)-one] | 0.0381 µM | 83.5% | 0.038 µM | – | – | – | – |
| O=C1CC2CNCCN2c2ccc(Br)cc2N1 (centres unmarked) [Example 13, 9-bromo-1,2,3,4,4a,5-hexahydropyrazino[1,2-a][1,5]benzodiazepin-6(7H)-one] | 0.0683 µM | 79% | 0.23 µM | – | – | – | – |
| O=C1CC2CNCCN2c2cc(Cl)c(Cl)cc2N1 (centres unmarked) [Example 15, 9,10-dichloro-1,2,3,4,4a,5-hexahydropyrazino[1,2-a][1,5]benzodiazepin-6(7H)-one] | 0.0081 µM | 104% | 0.017 µM | – | – | – | – |
| Clc1cc2c(cc1Cl)N1CCNCC1CCN2 (centres unmarked) [Example 16, 9,10-dichloro-1,2,3,4,4a,5,6,7-octahydropyrazino[1,2-a][1,5]benzodiazepine] | 0.0018 µM | 91% | 0.004 µM | – | – | – | – |
| c1ccc2c(c1)NCCC1CNCCN21 (centres unmarked) [Example 17, 1,2,3,4,4a,5,6,7-octahydropyrazino[1,2-a][1,5]benzodiazepine] | 0.073 µM | 111% | 0.14 µM | – | – | – | – |
| Clc1ccc2c(c1)N1CCNCC1CCN2 (centres unmarked) [Example 18, 10-chloro-1,2,3,4,4a,5,6,7-octahydropyrazino[1,2-a][1,5]benzodiazepine] | 0.0037 µM | 108% | 0.018 µM | – | – | – | – |
| Brc1ccc2c(c1)NCCC1CNCCN21 (centres unmarked) [Example 19, 9-bromo-1,2,3,4,4a,5,6,7-octahydropyrazino[1,2-a][1,5]benzodiazepine] | 0.0283 µM | 85.5% | 0.14 µM | < 5.00 | 7.70 | > 120% | – |
| CN1C(=O)CC2CNCCN2c2ccccc21 (centres unmarked) [Example 20, 7-methyl-1,2,3,4,4a,5-hexahydropyrazino[1,2-a][1,5]benzodiazepin-6(7H)-one] | 0.0759 µM | 103% | 0.22 µM | – | – | – | – |
| Clc1ccccc1CN1CCC2CNCCN2c2ccccc21 (centres unmarked) [Example 21, 7-(2-chlorobenzyl)-1,2,3,4,4a,5,6,7-octahydropyrazino[1,2-a][1,5]benzodiazepine] | 0.044 µM | 93% | 0.097 µM | – | – | – | – |
| Clc1cccc(CN2CCC3CNCCN3c3ccccc32)c1 (centres unmarked) [Example 22, 7-(3-chlorobenzyl)-1,2,3,4,4a,5,6,7-octahydropyrazino[1,2-a][1,5]benzodiazepine] | 0.0697 µM | 80.5% | 0.085 µM | – | – | – | – |
| CCN1CCN2c3ccccc3NC(=O)CC2C1 (centres unmarked) [Example 23, 3-ethyl-1,2,3,4,4a,5-hexahydropyrazino[1,2-a][1,5]benzodiazepin-6(7H)-one] | 0.165 µM | 87% | 0.19 µM | – | – | – | – |
| O=C1CC2CN(Cc3ccccc3)CCN2c2cc(Cl)ccc2N1 (centres unmarked) [Example 24, 3-benzyl-10-chloro-1,2,3,4,4a,5-hexahydropyrazino[1,2-a][1,5]benzodiazepin-6(7H)-one] | 0.942 µM | – | 0.36 µM | – | – | – | – |
| O=C1CC2CNCCN2c2cc(/C=C/c3cccc(Cl)c3)ccc2N1 (centres unmarked) [Example 25, 10-[(E)-2-(3-chlorophenyl)vinyl]-1,2,3,4,4a,5-hexahydropyrazino[1,2-a][1,5]benzodiazepin-6(7H)-one] | 0.0145 µM | 101% | 0.0014 µM | – | – | – | – |
| O=C1CC2CNCCN2c2cc(/C=C/c3ccc(F)cc3)ccc2N1 (centres unmarked) [Example 26, 10-[(E)-2-(4-fluorophenyl)vinyl]-1,2,3,4,4a,5-hexahydropyrazino[1,2-a][1,5]benzodiazepin-6(7H)-one] | 0.0855 µM | 98.5% | 0.032 µM | – | – | – | – |
| O=C1CC2CNCCN2c2cc(/C=C/c3ccc(Cl)cc3)ccc2N1 (centres unmarked) [Example 27, 10-[(E)-2-(4-chlorophenyl)vinyl]-1,2,3,4,4a,5-hexahydropyrazino[1,2-a][1,5]benzodiazepin-6(7H)-one] | 0.183 µM | 96.5% | 0.013 µM | – | – | – | – |
| O=C1CC2CNCCN2c2cc(/C=C/c3ccc(F)cc3F)ccc2N1 (centres unmarked) [Example 28, 10-[(E)-2-(2,4-difluorophenyl)vinyl]-1,2,3,4,4a,5-hexahydropyrazino[1,2-a][1,5]benzodiazepin-6(7H)-one] | 0.131 µM | 92% | 0.036 µM | – | – | – | – |
| O=C1CC2CNCCN2c2cc(CCc3ccccc3)ccc2N1 (centres unmarked) [Example 29, 10-(2-phenylethyl)-1,2,3,4,4a,5-hexahydropyrazino[1,2-a][1,5]benzodiazepin-6(7H)-one] | 0.0043 µM | 104% | 0.011 µM | – | – | – | – |
| O=C1CC2CNCCN2c2c(Br)cccc2N1 (centres unmarked) [Example 30, 11-bromo-1,2,3,4,4a,5-hexahydropyrazino[1,2-a][1,5]benzodiazepin-6(7H)-one] | 0.0017 µM | 113% | 0.016 µM | – | – | – | – |
| O=C1CC2CNCCN2c2cc(C(F)(F)F)ccc2N1 (centres unmarked) [Example 31, 10-(trifluoromethyl)-1,2,3,4,4a,5-hexahydropyrazino[1,2-a][1,5]benzodiazepin-6(7H)-one] | 0.0204 µM | 118% | 0.087 µM | – | – | – | – |
| O=C1CC2CNCCN2c2cccc(F)c2N1 (centres unmarked) [Example 32, 8-fluoro-1,2,3,4,4a,5-hexahydropyrazino[1,2-a][1,5]benzodiazepin-6(7H)-one] | 0.0258 µM | 102% | 0.042 µM | < 5.00 | 8.10 | 100% | – |
| O=C1CC2CNCCN2c2c(F)cccc2N1 (centres unmarked) [Example 33, 11-fluoro-1,2,3,4,4a,5-hexahydropyrazino[1,2-a][1,5]benzodiazepin-6(7H)-one] | 0.0142 µM | 98% | 0.042 µM | < 5.00 | 8.00 | > 120% | – |
| O=C1CC2CNCCN2c2ccc(F)cc2N1 (centres unmarked) [Example 34, 9-fluoro-1,2,3,4,4a,5-hexahydropyrazino[1,2-a][1,5]-benzodiazepin-6(7H)-one] | 0.0893 µM | 100% | 0.19 µM | – | – | – | – |
| O=C1CC2CNCCN2c2cc(F)ccc2N1 (centres unmarked) [Example 35, 10-fluoro-1,2,3,4,4a,5-hexahydropyrazino[1,2-a][1,5]benzodiazepin-6(7H)-one] | 0.052 µM | 100% | 0.11 µM | 6.22 | 7.70 | > 120% | 80% |
| O=C1CC2CNCCN2c2ccc3ccccc3c2N1 (centres unmarked) [Example 39, 3,3a,4,5,6,7-hexahydronaphtho[1,2-b]pyrazino[1,2-d][1,4]diazepin-2(1H)-one] | > 10 µM | – | 0.034 µM | – | – | – | – |
